According to patent publication US10287267B2, “Isoquinolin-3-yl carboxamides and preparation and use thereof” (Samumed, LLC, priority 2016, dated 2019):
Where two headings read alike, the source gives them in different places.

Key:
recombinant GSK3β kinase = recombinant GSK3β kinase (Homo sapiens (Human), UniProt P49841); assay: GSK3β kinase assay (Ser/Thr 09 peptide Z-lyte FRET); assay type: biochemical; settings: 46 μM ATP, 1 h room temperature;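 also: kinase activity read as coumarin to fluorescein emission ratio, 11-point threefold dilutions from 10 µM to 0.0003 µM in duplicate, unphosphorylated and phosphorylated peptide as 0% and 100% controls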
IL-6 = IL-6 inhibition in LPS-stimulated human peripheral blood mononuclear cells (HTRF); assay type: cell-based; settings: Homo sapiens, PBMC; for EC50: Table 9, huPBMCs, LPS 50 ng/mL, 22 hours, dose-response starting from 10 μM;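 as to all read-outs here: IL-6 detected by HTRF with an XL665- and Cryptate-labelled anti-IL-6 antibody pair, samples run in duplicate, EC50 obtained from a four-parameter Levenberg-Marquardt curve fit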
Description: After 22 hour incubation, a mixture of anti-IL6 XL665 and anti-IL-6 Cryptate diluted in reconstitution buffer (Catalog #62IL6PEC, Cisbio Inc., Bedford, Mass.) was added to each well. […] All samples were processed in duplicate. […] EC50 was determined using software generated by Dotmatics Limited (Windhill Bishops Stortford Herts, UK) using the Levenberg-Marquardt 4 parameter fitting procedure with finite different gradients.

[1] = test system: SW480 colon carcinoma cells; assay: Cell viability assay (CellTiter-Glo); assay type: cell-based, human; settings: Homo sapiens; for EC50: 96 h, SW480 cells, CellTiter-Glo, four days incubation; for inhibition at 10 µM: SW480, read-out: percent inhibition at 10 μM
[2] = test system: Tau phosphorylation at Ser396 (pSer396); assay: Tau phosphorylation assay (pSer396 ELISA / western blot) in SH-SY5Y cells; assay type: cell-based, human; settings: SH-SY5Y cells;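 also: EC50 for reduction of Tau pSer396 in lysed cells, measured by colorimetric ELISA or chemiluminescent western blot, both using the same pSer396 antibody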
[3] = test system: Wnt pathway (Sp5-Luc reporter, TCF/LEF binding sites) in SW480 colon carcinoma cells; assay: Screening assay for Wnt activity: Sp5-Luc reporter gene assay; assay type: cell-based, human; settings: Homo sapiens; for EC50: Sp5-Luc reporter, SW480 cells, 36 to 48 hours; for inhibition at 10 µM: SW480, read-out: percent inhibition at 10 μM;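 as to all read-outs here: firefly luciferase luminescence read in stably transduced SW480 cells carrying the Sp5 promoter reporter with eight TCF/LEF sites, compounds given in 0.1% DMSO final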
Description: The screening assay for Wnt activity is described as follows.
Following incubation, 15 μl of BriteLite Plus luminescence reagent (Perkin Elmer) was added to each well of the 384-well assay plates. The plates were placed on an orbital shaker for 2 min and then luminescence was quantified using the Envision (Perkin Elmer) plate reader.

[4] = target: recombinant DYRK1A kinase (Homo sapiens (Human), UniProt Q13627); assay: DYRK1A kinase assay (Ser/Thr 18 peptide Z-lyte FRET); assay type: biochemical; settings: 30 μM ATP, 1 h room temperature;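 also: Read-out is the coumarin to fluorescein emission ratio, referenced to unphosphorylated (0%) and phosphorylated (100%) Ser/Thr 18 peptide controls, values from dose-response curves by non-linear regression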
[5] = test system: α-smooth muscle actin (αSMA) positive LL29 cells; assay: Inhibition of fibrotic process: αSMA in TGF-β1 treated primary human fibroblasts from IPF patients; assay type: cell-based; settings: Homo sapiens, Fibroblast, 96 h; Table 8; LL29 fibroblasts from IPF patients, TGF-β1 20 ng/mL, 4 days; dose-response 10 μM to 0.94 nM;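 also: controls were TGF-β1 stimulated wells with DMSO vehicle (positive) and cells given DMSO alone (negative), cultured in F12 medium with 1% fetal bovine serum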
[6] = Homo sapiens, overnight (16-18 h) exposure, read-out: pSer396 Tau EC50

recombinant GSK3β kinase, sequence (P49841 whole entry): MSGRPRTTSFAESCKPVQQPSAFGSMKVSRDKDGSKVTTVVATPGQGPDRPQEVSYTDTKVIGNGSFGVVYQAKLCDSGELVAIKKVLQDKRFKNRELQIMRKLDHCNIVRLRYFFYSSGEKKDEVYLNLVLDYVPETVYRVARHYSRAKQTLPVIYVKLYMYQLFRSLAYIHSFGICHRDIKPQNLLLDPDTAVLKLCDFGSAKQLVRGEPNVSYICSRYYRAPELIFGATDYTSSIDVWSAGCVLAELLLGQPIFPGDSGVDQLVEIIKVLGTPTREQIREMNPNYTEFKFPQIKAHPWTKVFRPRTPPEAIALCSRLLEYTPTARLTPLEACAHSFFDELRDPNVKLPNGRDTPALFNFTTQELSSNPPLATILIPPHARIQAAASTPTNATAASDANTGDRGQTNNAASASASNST

Compound | EC50 (recombinant GSK3β kinase) [nM] | EC50 (IL-6) [µM] | EC50 [1] [nM] | EC50 [2, 6] [nM] | EC50 [3] [nM] | EC50 [4] [nM] | EC50 [5] [nM] | inhibition at 10 µM [1] [%] | inhibition at 10 µM [3] [%] | inhibition at 10 µM (IL-6; read-out: percent value in parentheses beside EC50 >10 μM) [%] | EC50 ([2]; control DYRK1A inhibitors, read-out: EC50 in the Tau assay) [nM]
CN(C)C1CCC(C(=O)Nc2cc3cc(-c4cnn(C)c4)ccc3cn2)CC1 (stereo in doubt) [Compound 1081, trans-4-(Dimethylamino)-N-(6-(1-methyl-1H-pyrazol-4-yl)isoquinolin-3-yl)cyclohexane-1-carboxamide] | 82 | 1.1 | 4650 | 470 | 2730 | 2.2 |  |  |  |  | 
Cc1ncc(-c2ccc3cnc(NC(=O)C4CCCCC4)cc3c2)n1C [Compound 120, N-(6-(1,2-Dimethyl-1H-imidazol-5-yl)isoquinolin-3-yl) cyclohexanecarboxamide] | 138 | 2.29 | 2490 |  | 2200 | 4.8 | 2130 |  |  |  | 
O=C(CN1CCCC1)Nc1cc2cc(-c3cn[nH]c3C(F)(F)F)ccc2cn1 [Compound 287, 2-(Pyrrolidin-1-yl)-N-(6-(5-(trifluoromethyl)-1H-pyrazol-4-yl)isoquinolin-3-yl)acetamide] | 9840 | 9.58 | > 10000 |  | 7330 | 5140 | 2350 | 47.8 |  |  | 
Cn1cc(-c2ccc3cnc(NC(=O)C4CCN(S(C)(=O)=O)CC4)cc3c2)cn1 [Compound 330, N-(6-(1-Methyl-1H-pyrazol-4-yl)isoquinolin-3-yl)-1-(methylsulfonyl) piperidine-4-carboxamide] |  | 1.16 | 6780 | 246 | 449 |  | 20 |  |  |  | 
Cn1cc(-c2ccc3cnc(NC(=O)N4CN5CCC[C@@H]5C4=O)cc3c2)cn1 [Compound 362, (R)—N-(6-(1-Methyl-1H-pyrazol-4-yl)isoquinolin-3-yl)-1-oxotetrahydro-1H-pyrrolo[1,2-c]imidazole-2(3H)-carboxamide] | 1100 | 9.15 | 5480 |  | 951 | 132 | 782 |  |  |  | 
CC(F)(F)CN1CCC(C(=O)Nc2cc3cc(-c4cncs4)ccc3cn2)CC1 [Compound 731, 1-(2,2-Difluoropropyl)-N-(6-(thiazol-5-yl)isoquinolin-3-yl)piperidine-4-carboxamide] | 42 | 1.18 | 1100 | 450 | 3050 | 1.4 |  |  |  |  | 
Cn1ncc(-c2ccc3cnc(NC(=O)[C@H]4CC[C@H](CO)CC4)cc3c2)c1CN1CCCCC1 [Compound 798, trans-4-(Hydroxymethyl)-N-(6-(1-methyl-5-(piperidin-1-ylmethyl)-1H-pyrazol-4-yl)isoquinolin-3-yl)cyclohexane-1-carboxamide] | 31 | 1.27 | 613 | 320 | 594 | 3.1 |  |  |  |  | 
Cn1ncc(-c2ccc3cnc(NC(=O)C4CCOCC4)cc3c2)c1CN1CCCCC1 [Compound 839, N-(6-(1-Methyl-5-(piperidin-1-ylmethyl)-1H-pyrazol-4-yl)isoquinolin-3-yl) tetrahydro-2H-pyran-4-carboxamide] | 17 | 3.28 | 1180 | 254 | 776 | 3.8 |  |  |  |  | 
Cc1nnc(-c2ccc3cnc(NC(=O)[C@H]4CC[C@H](CO)CC4)cc3c2)s1 [Compound 888, trans-4-(Hydroxymethyl)-N-(6-(5-methyl-1,3,4-thiadiazol-2-yl)isoquinolin-3-yl)cyclohexane-1-carboxamide] | 8 | 3.94 | 2470 | 195 | 1040 | 1.4 |  |  |  |  | 
Cc1nnc(-c2ccc3cnc(NC(=O)CN4CCOC[C@H]4C)cc3c2)s1 [Compound 953, (R)—N-(6-(5-Methyl-1,3,4-thiadiazol-2-yl)isoquinolin-3-yl)-2-(3-methylmorpholino)acetamide] | 23 |  | > 10000 | 398 | > 10000 | 16.8 |  | 40.3 | 48.7 |  | 
CN1CCC(n2cc(-c3ccc4cnc(NC(=O)C5CCCCC5)cc4c3)cn2)CC1 [Compound 969, N-(6-(1-(1-Methylpiperidin-4-yl)-1H-pyrazol-4-yl)isoquinolin-3-yl) cyclohexanecarboxamide] | 7610 | 9.12 | 2880 |  | 3930 | 50 | 935 |  |  |  | 
CC#CC(=O)Nc1cc2cc(-c3cnn(C)c3)ccc2cn1 [Compound 1026, N-(6-(1-Methyl-1H-pyrazol-4-yl)isoquinolin-3-yl)but-2-ynamide] | 508 | 9.52 | 554 |  | 513 | 5 | 2260 |  |  |  | 
Cn1cc(-c2ccc3cnc(NC(=O)[C@H]4CC[C@H](C(=O)O)CC4)cc3c2)cn1 [Compound 1032, trans-4-((6-(1-Methyl-1H-pyrazol-4-yl)isoquinolin-3-yl)carbamoyl) cyclohexane-1-carboxylic acid] | 72 | 3.32 | > 10000 |  | > 10000 | 1.2 |  | 34.7 | 27.4 |  | 
[2H]C([2H])(C(=O)Nc1cc2cc(-c3nnc(C)s3)ccc2cn1)N1CCOCC1 [Compound 1051, N-(6-(5-Methyl-1,3,4-thiadiazol-2-yl)isoquinolin-3-yl)-2-morpholinoacetamide-2,2-d2] | 9 |  | > 10000 | 147 | 480 | 14.6 |  | 22.5 |  |  | 
[2H]C1([2H])OC([2H])([2H])C([2H])([2H])N(CC(=O)Nc2cc3cc(-c4nnc(C)s4)ccc3cn2)C1([2H])[2H] [Compound 1052, N-(6-(5-Methyl-1,3,4-thiadiazol-2-yl)isoquinolin-3-yl)-2-(morpholino-d8) acetamide] | 11 |  | > 10000 | 254 | 2280 | 18 |  | 40.7 |  |  | 
CC(C)CN1CCC(F)(C(=O)Nc2cc3cc(-n4nccn4)ccc3cn2)CC1 [Compound 1073, N-(6-(2H-1,2,3-triazol-2-yl)isoquinolin-3-yl)-4-fluoro-1-isobutylpiperidine-4-carboxamide] | > 10000 | > 10 | > 10000 |  | > 10000 | 1520 | > 10000 | 8.5 | 5.9 | 3.3 | 
Cn1cc(-c2ccc3cnc(NC(=O)C45CC(CO)(C4)C5)cc3c2)cn1 [Compound 1083, 3-(Hydroxymethyl)-N-(6-(1-methyl-1H-pyrazol-4-yl)isoquinolin-3-yl) bicyclo[1.1.1]pentane-1-carboxamide] | 914 | 8.73 | 901 |  | 8210 | 4.2 |  |  |  |  | 
COC(=O)[C@H]1CC[C@H](C(=O)Nc2cc3cc(-c4cnn(C)c4)ccc3cn2)CC1 [Compound 1084, Methyl trans-4-((6-(1-methyl-1H-pyrazol-4-yl)isoquinolin-3-yl)carbamoyl) cyclohexane-1-carboxylate] | 40 | 0.752 | 3670 |  | 3410 | 1.7 |  |  |  |  | 
[2H]c1nc(NC(=O)C2CCNCC2)cc2cc(-c3cnn(C)c3)ccc12 [Compound 1085, N-(6-(1-Methyl-1H-pyrazol-4-yl)isoquinolin-3-yl-1-d)piperidine-4-carboxamide] | 83 | 0.453 | 1240 |  | 2200 | 2.4 |  |  |  |  | 
CN1CCN(C(=O)[C@H]2CC[C@H](C(=O)Nc3cc4cc(-c5cnn(C)c5)ccc4cn3)CC2)CC1 [Compound 1091, trans-N-(6-(1-Methyl-1H-pyrazol-4-yl)isoquinolin-3-yl)-4-(4-methylpiperazine-1-carbonyl)cyclohexane-1-carboxamide] | 69 |  | 1250 | 869 | 2950 | 1.4 |  |  |  |  | 
CC(C)CN1CCC(C(=O)Nc2cc3cc(-c4nnnn4C)ccc3cn2)CC1 [Compound 1092, 1-Isobutyl-N-(6-(1-methyl-1H-tetrazol-5-yl)isoquinolin-3-yl)piperidine-4-carboxamide] | 132 |  | 2980 | 131 | 247 | 62.7 |  |  |  |  | 
[2H]c1nc(NC(=O)CN2CCCC2)cc2cc(-c3cnn(C)c3)ccc12 [Compound 1093, N-(6-(1-Methyl-1H-pyrazol-4-yl)isoquinolin-3-yl-1-d)-2-(pyrrolidin-1-yl) acetamide] | 47 |  |  | 422 | 1780 | 11.7 |  |  |  |  | 
CCN1/C(=C/C(C)=O)Sc2ccc(O)cc21 [Indy, reference compound] |  |  |  |  |  |  |  |  |  |  | > 10000
